Data published in the supplement of paper PMC10307832.

Assays:
Test in all cases: relative viability (nuclei count vs DMSO), 5 days (fraction); higher = more cells survive
[1] = compound: COc1cc(-c2nn([C@H]3CC[C@H](N4CCN(C(C)=O)CC4)CC3)c3ncnc(N)c23)ccc1NC(=O)c1cc2ccccc2n1C + C[C@@H](Oc1cc(-c2cnn(C3CCNCC3)c2)cnc1N)c1c(Cl)ccc(F)c1Cl [Crizotinib] (partner 1 µM)
How it was run: (§1)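 Relative viability divides the nuclei count in treated wells by that in vehicle wells. Lung cancer cell lines were seeded in 1536-well plates, dosed by pin tool the next day, and fixed and stained after 5 days in one step with final 0.05% Triton X-100, 1% formaldehyde and 1 ug/ml Hoechst. Dosing was a single drug or a fixed anchor-drug dose plus five library-drug doses (not always all listed) in √10 steps, and values are medians of duplicate plates imaged at 4×.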

[2] = compound: COc1cc(-c2nn([C@H]3CC[C@H](N4CCN(C(C)=O)CC4)CC3)c3ncnc(N)c23)ccc1NC(=O)c1cc2ccccc2n1C + Nc1nc2[nH]cc(CCc3ccc(C(=O)N[C@@H](CCC(=O)O)C(=O)O)cc3)c2c(=O)[nH]1 [Pemetrexed] (partner 0.2 µM)
How it was run: as §1

[3] = compound: COc1cc(-c2nn([C@H]3CC[C@H](N4CCN(C(C)=O)CC4)CC3)c3ncnc(N)c23)ccc1NC(=O)c1cc2ccccc2n1C + O=C(c1cc(Cc2n[nH]c(=O)c3ccccc23)ccc1F)N1CCN(C(=O)C2CC2)CC1 [Olaparib] (partner 8 µM)
How it was run: as §1

[4] = compound: CO[C@@H]1[C@H](N(C)C(=O)c2ccccc2)C[C@H]2O[C@]1(C)n1c3ccccc3c3c4c(c5c6ccccc6n2c5c31)C(=O)NC4 [Midostaurin] + C[C@]1(O)C[C@@H](c2nc(-c3ccc4ccc(-c5ccccc5)nc4c3)c3c(N)nccn32)C1 [Linsitinib] (partner 1 µM)
How it was run: as §1

[5] = compound: COc1cc(-c2nn([C@H]3CC[C@H](N4CCN(C(C)=O)CC4)CC3)c3ncnc(N)c23)ccc1NC(=O)c1cc2ccccc2n1C + COc1cccc2cc(-c3nc([C@H]4CC[C@H](C(=O)O)CC4)n4ncnc(N)c34)[nH]c12 [OSI-027] (partner 0.5 µM)
How it was run: as §1

Row | Cell Line | relative viability ([1]; first compound 0.0128 µM) | relative viability ([1]; first compound 0.04048 µM) | relative viability ([1]; first compound 0.128 µM) | relative viability ([1]; first compound 1.28 µM) | relative viability ([2]; first compound 0.0128 µM) | relative viability ([2]; first compound 0.04048 µM) | relative viability ([2]; first compound 0.128 µM) | relative viability ([2]; first compound 1.28 µM) | relative viability ([3]; first compound 0.0128 µM) | relative viability ([3]; first compound 0.04048 µM) | relative viability ([3]; first compound 0.128 µM) | relative viability ([3]; first compound 1.28 µM) | relative viability ([4]; first compound 0.01 µM) | relative viability ([4]; first compound 0.03162 µM) | relative viability ([4]; first compound 0.1 µM) | relative viability ([4]; first compound 0.3162 µM) | relative viability ([5]; first compound 0.0128 µM) | relative viability ([5]; first compound 0.04048 µM) | relative viability ([5]; first compound 0.128 µM) | relative viability ([5]; first compound 1.28 µM)
1 | HCC-44 | 0.931 | 0.825 | 0.847 | 1.06 | 0.719 | 0.742 | 0.607 | 0.687 | 1.1 | 1.09 | 0.916 | 1.27 | 0.756 | 0.659 | 0.579 | 0.609 | 0.477 | 0.528 | 0.549 | 0.484
2 | EKVX | 0.986 | 1.04 | 0.755 | 0.359 | 0.43 | 0.4 | 0.373 | 0.374 | 1.01 | 0.972 | 0.774 | 0.409 | 0.953 | 1.03 | 0.943 | 0.892 | 0.765 | 0.853 | 0.618 | 0.54
3 | NCI-H1651 | 0.902 | 0.908 | 0.81 | 0.712 | 0.57 | 0.617 | 0.57 | 0.438 | 0.19 | 0.177 | 0.205 | 0.165 | 1.06 | 0.851 | 1.03 | 0.957 | 0.664 | 0.748 | 0.531 | 0.644
4 | NCI-H1944 | 1.12 | 1.14 | 1.02 | 0.787 | 0.65 | 0.589 | 0.571 | 0.6 | 0.431 | 0.409 | 0.444 | 0.331 | 1.17 | 1.25 | 1.31 | 1.28 | 0.457 | 0.332 | 0.412 | 0.353
5 | SW 1573 | 0.775 | 0.703 | 0.636 | 0.652 | 0.862 | 0.754 | 0.885 | 0.759 | 0.439 | 0.414 | 0.412 | 0.393 | 0.747 | 0.848 | 0.979 | 1.02 | 0.68 | 0.691 | 0.624 | 0.466
6 | A-427 | 1.04 | 0.771 | 0.872 | 0.803 | 0.972 | 1.07 | 0.906 | 0.93 | 0.768 | 0.737 | 0.782 | 0.754 | 1.14 | 1.08 | 1.09 | 1.09 | 0.497 |  | 0.456 | 0.45
7 | NCI-H2347 | 0.795 | 0.751 | 0.797 | 0.736 | 0.45 | 0.447 | 0.431 | 0.382 | 0.561 | 0.597 | 0.56 | 0.505 | 0.896 | 0.837 | 0.899 | 0.927 | 0.406 |  | 0.434 | 0.418
8 | NCI-H1355 | 1.15 | 1.07 | 1.06 | 0.946 | 1.18 | 1.06 | 1.01 | 0.967 | 0.798 | 0.831 | 0.756 | 0.684 | 0.755 | 0.83 | 0.865 | 0.838 | 0.47 | 0.315 | 0.507 | 0.433
